≈ marks a conversion by molar mass, not a printed value. Where two headings read alike, the source gives them in different places.
Columns and labels:
S. aureus = assay: Minimum Inhibitory Concentration (MIC) testing, terfenadine study; format: cell-based; conditions: Staphylococcus aureus, 16 h
S. aureus DNA gyrase = molecular target: T1, S. aureus DNA gyrase (Staphylococcus aureus, UniProt P0A0K8+P20831); assay: S. aureus DNA gyrase supercoiling assay (TopoGEN); format: biochemical
T1 construct: purchased TopoGEN
T1 sequence (P0A0K8 whole entry): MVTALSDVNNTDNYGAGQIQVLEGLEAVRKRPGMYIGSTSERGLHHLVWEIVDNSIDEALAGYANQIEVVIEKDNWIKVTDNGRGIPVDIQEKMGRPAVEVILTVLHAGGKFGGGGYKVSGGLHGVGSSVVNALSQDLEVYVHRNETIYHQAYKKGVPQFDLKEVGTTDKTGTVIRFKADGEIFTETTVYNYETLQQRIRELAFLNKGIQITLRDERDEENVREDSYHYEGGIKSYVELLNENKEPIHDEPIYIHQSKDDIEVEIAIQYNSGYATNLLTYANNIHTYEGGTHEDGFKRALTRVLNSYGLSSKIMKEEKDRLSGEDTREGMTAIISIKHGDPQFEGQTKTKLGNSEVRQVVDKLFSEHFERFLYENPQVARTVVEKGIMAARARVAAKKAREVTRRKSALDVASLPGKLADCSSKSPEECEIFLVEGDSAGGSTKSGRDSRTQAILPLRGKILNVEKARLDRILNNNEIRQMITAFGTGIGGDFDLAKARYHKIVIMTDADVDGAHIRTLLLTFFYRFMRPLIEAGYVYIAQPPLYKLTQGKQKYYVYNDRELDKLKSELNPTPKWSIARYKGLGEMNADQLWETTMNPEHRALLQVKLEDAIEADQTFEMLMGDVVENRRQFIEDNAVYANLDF
T1 sequence (P20831 whole entry): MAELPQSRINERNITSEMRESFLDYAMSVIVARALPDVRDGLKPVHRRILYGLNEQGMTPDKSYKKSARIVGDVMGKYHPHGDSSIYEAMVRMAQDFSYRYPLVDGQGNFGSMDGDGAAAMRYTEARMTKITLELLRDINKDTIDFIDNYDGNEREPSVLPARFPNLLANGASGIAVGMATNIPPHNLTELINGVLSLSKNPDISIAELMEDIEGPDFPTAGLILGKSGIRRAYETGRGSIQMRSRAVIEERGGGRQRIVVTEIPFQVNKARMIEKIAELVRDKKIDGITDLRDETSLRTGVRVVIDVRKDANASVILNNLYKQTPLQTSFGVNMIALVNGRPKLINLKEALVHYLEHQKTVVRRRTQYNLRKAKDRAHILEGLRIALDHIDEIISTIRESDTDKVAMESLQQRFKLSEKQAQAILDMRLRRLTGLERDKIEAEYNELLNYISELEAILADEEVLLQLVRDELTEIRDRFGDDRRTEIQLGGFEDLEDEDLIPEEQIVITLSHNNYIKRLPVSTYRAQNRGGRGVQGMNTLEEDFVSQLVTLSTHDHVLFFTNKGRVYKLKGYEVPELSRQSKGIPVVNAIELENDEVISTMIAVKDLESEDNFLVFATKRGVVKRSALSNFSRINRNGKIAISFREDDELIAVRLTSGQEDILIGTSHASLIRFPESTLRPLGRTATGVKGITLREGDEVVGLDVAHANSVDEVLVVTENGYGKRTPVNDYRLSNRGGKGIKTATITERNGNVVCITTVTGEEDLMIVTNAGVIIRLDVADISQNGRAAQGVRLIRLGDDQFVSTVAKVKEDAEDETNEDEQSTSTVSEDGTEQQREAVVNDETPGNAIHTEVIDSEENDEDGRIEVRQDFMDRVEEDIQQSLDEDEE
Protocol: Reactions were incubated at 37° C. for 30 min and then stopped by the addition of 10% SDS, filtered through 0.025 μm Millipore membrane filters in a 10 mM Tris-HCl buffer (pH 8), and electrophoresed in a 1% agarose TAE gel. Gels were stained with 0.5 μg/ml ethidium bromide and images were analyzed using densitometry (Image J, NIH).

[1] = test system: Enterococcus faecium 824-05; assay: MIC testing; format: cell-based; conditions: 82405; Enterococcus faecium 824-05; read-out: MIC
E. faecium = assay: AK assay 384-well format, Prestwick library screening; format: cell-based, Enterococcus faecium; conditions: E. faecium; 50 μM, cutoff 3-fold increase in AK

## CC(C)(C)c1cccc(CCN2CCC(C(O)(c3ccccc3)c3ccccc3)CC2)c1 [Compound 39, (1-(3-(Tert-butyl)phenethyl)piperidin-4-yl)diphenylmethanol]
S. aureus
  MIC: 16 mg/L (≈ 37.4 µM)
S. aureus DNA gyrase
  IC50: 218 µM

## CC(C)(C)c1ccc(C(=O)N2CCC(C(O)(c3ccccc3)c3ccccc3)CC2)cc1 [Compound 27, (4-(tert-butyl)phenyl)(4-(hydroxydiphenylmethyl)piperidin-1-yl)methanone]
S. aureus
  MIC: > 256 mg/L
S. aureus DNA gyrase
  IC50: 218 µM

## COc1ccc(CCN2CCC(C(O)(c3ccccc3)c3ccccc3)CC2)cc1 [Compound 28, (1-(4-methoxyphenethyl)piperidin-4-yl)diphenylmethanol]
S. aureus
  MIC: 256 mg/L (≈ 638 µM)
S. aureus DNA gyrase
  IC50: > 829 µM

## OC(CCCN1CCC(C(O)(c2ccccc2)c2ccccc2)CC1)c1ccccc1 (centres unmarked) [Compound 6, 4-(4-(hydroxydiphenylmethyl)piperidin-1-yl)-1-phenylbutan-1-ol]
S. aureus
  MIC: 256 mg/L (≈ 616 µM)
S. aureus DNA gyrase
  IC50: > 1200 µM

## OC(CCCN1CCC(C(O)(c2ccccc2)c2ccccc2)CC1)c1ccc(F)cc1 (centres unmarked) [Compound 8, 1-(4-fluorophenyl)-4-(4-(hydroxydiphenylmethyl)piperidin-1-yl)butan-1-ol]
S. aureus
  MIC: 128 mg/L (≈ 295 µM)
S. aureus DNA gyrase
  IC50: > 1150 µM

## OC(c1ccccc1)(c1ccccc1)C1CCN(CCc2ccc(Br)cc2)CC1 [Compound 30, (1-(4-bromophenethyl)piperidin-4-yl)diphenylmethanol]
S. aureus
  MIC: 16 mg/L (≈ 35.5 µM)
S. aureus DNA gyrase
  IC50: 548 µM

## CC(C)(C)c1ccc(CCN2CCC(C(O)(c3ccccc3)c3ccccc3)CC2)cn1 [Compound 43, (1-(2-(6-(Tert-butyl)pyridin-3-yl)ethyl)piperidin-4-yl)diphenylmethanol]
S. aureus
  MIC: 64 mg/L (≈ 149 µM)
S. aureus DNA gyrase
  IC50: > 777 µM

## OC(c1ccccc1)(c1ccccc1)C1CCN(CCc2ccc(Cl)cc2)CC1 [Compound 44, (1-(4-Chlorophenethyl)piperidin-4-yl)diphenylmethanol]
S. aureus
  MIC: 32 mg/L (≈ 78.8 µM)
S. aureus DNA gyrase
  IC50: 640 µM

## OC(CCCN1CCC(C(O)(c2ccccc2)c2ccccc2)CC1)c1ccc(Cl)cc1 (centres unmarked) [Compound 4, 1-(4-chlorophenyl)-4-(4-(hydroxydiphenylmethyl)piperidin-1-yl)butan-1-ol]
S. aureus
  MIC: 64 mg/L (≈ 142 µM)
S. aureus DNA gyrase
  IC50: 296 µM

## OC(c1ccccc1)(c1ccccc1)C1CCN(CCc2ccc(-c3ccncc3)cc2)CC1 [Compound 33, Diphenyl(1-(4-(pyridin-4-yl)phenethyl)piperidin-4-yl)methanol]
S. aureus
  MIC: 32 mg/L (≈ 71.3 µM)
S. aureus DNA gyrase
  IC50: 208 µM

## O=C(O)c1ccc(C(O)CCCN2CCC(C(O)(c3ccccc3)c3ccccc3)CC2)cc1 (centres unmarked) [Compound 19, 4-(1-hydroxy-4-(4-(hydroxydiphenylmethyl)piperidin-1-yl)butyl)benzoic acid]
S. aureus
  MIC: > 256 mg/L
S. aureus DNA gyrase
  IC50: > 1090 µM

## CC(C)(C)c1ccc(C(=O)CCN2CCC(C(O)(c3ccccc3)c3ccccc3)CC2)cc1 [Compound 21, 1-(4-(tert-butyl)phenyl)-3-(4-(hydroxydiphenylmethyl)piperidin-1-yl)propan-1-one]
S. aureus
  MIC: 32 mg/L (≈ 70.2 µM)
S. aureus DNA gyrase
  IC50: 198 µM

## CN(C)c1ccc(CCN2CCC(C(O)(c3ccccc3)c3ccccc3)CC2)cc1 [Compound 36, (1-(4-(Dimethylamino)phenethyl)piperidin-4-yl)diphenylmethanol]
S. aureus
  MIC: 256 mg/L (≈ 617 µM)
S. aureus DNA gyrase
  IC50: > 803 µM

## OC(c1ccccc1)(c1ccccc1)C1CCN(CCc2ccc(F)cc2)CC1 [Compound 38, (1-(4-Fluorophenethyl)piperidin-4-yl)diphenylmethanol]
S. aureus
  MIC: 128 mg/L (≈ 329 µM)
S. aureus DNA gyrase
  IC50: > 855 µM

## CC(C)(C)c1ccc(C(O)CCCN2CCC(Cc3ccccc3)CC2)cc1 (centres unmarked) [Compound 40, 4-(4-Benzylpiperidin-1-yl)-1-(4-(tert-butyl)phenyl)butan-1-ol]
S. aureus
  MIC: 64 mg/L (≈ 169 µM)
S. aureus DNA gyrase
  IC50: > 877 µM

## OC(c1ccccc1)(c1ccccc1)C1CCN(CCc2ccc(-c3ccccc3)cc2)CC1 [Compound 32, (1-(2-([1,1′-biphenyl]-4-yl)ethyl)piperidin-4-yl)diphenylmethanol]
S. aureus; S. aureus, MHB, strain not given, read-out: MIC
  MIC: 8 mg/L (≈ 17.9 µM)
S. aureus DNA gyrase
  IC50: 179 µM

## OC(CCCN1CCC(C(O)(c2ccccc2)c2ccccc2)CC1)c1ccc(-c2ccccc2)cc1 (centres unmarked) [Compound 25, 1-([1,1′-biphenyl]-4-yl)-4-(4-(hydroxydiphenylmethyl)piperidin-1-yl)butan-1-ol]
S. aureus
  MIC: 8 mg/L (≈ 16.3 µM)
S. aureus DNA gyrase
  IC50: 27.1 µM

## O=[N+]([O-])c1ccc(CCN2CCC(C(O)(c3ccccc3)c3ccccc3)CC2)cc1 [Compound 29, (1-(4-nitrophenethyl)piperidin-4-yl)diphenylmethanol]
S. aureus
  MIC: 64 mg/L (≈ 154 µM)
S. aureus DNA gyrase
  IC50: 632 µM

## COc1ccc(C(O)CCCN2CCC(C(O)(c3ccccc3)c3ccccc3)CC2)cc1 (centres unmarked) [Compound 7, 4-(4-(hydroxydiphenylmethyl)piperidin-1-yl)-1-(4-methoxyphenyl)butan-1-ol]
S. aureus
  MIC: 256 mg/L (≈ 575 µM)
S. aureus DNA gyrase
  IC50: > 1120 µM

## CC(C)(C)c1ccc(NCCCN2CCC(C(O)(c3ccccc3)c3ccccc3)CC2)cc1 [Compound 41, (1-(3-((4-(Tert-butyl)phenyl)amino)propyl)piperidin-4-yl)diphenylmethanol]
S. aureus
  MIC: 8 mg/L (≈ 17.5 µM)
S. aureus DNA gyrase
  IC50: 423 µM

## CCN(CC)CCOc1ccc(C(=C(Cl)c2ccccc2)c2ccccc2)cc1 [Clomiphene, clomiphene, reference compound]
[1]
  MIC: 8 mg/L (≈ 19.7 µM)
E. faecium
  activity in AK Prestwick screen: identified

## COC(=O)c1ccc(C(O)CCCN2CCC(C(O)(c3ccccc3)c3ccccc3)CC2)cc1 (centres unmarked) [Compound 18, Methyl 4-(1-hydroxy-4-(4-(hydroxydiphenylmethyl)piperidin-1-yl)butyl)benzoate]
S. aureus
  MIC: 256 mg/L (≈ 541 µM)
S. aureus DNA gyrase
  IC50: 929 µM

## CC(C)(C)c1ccc(CCCCN2CCC(C(O)(c3ccccc3)c3ccccc3)CC2)cc1 [Compound 10, (1-(4-(4-(tert-butyl)phenyl)butyl)piperidin-4-yl)diphenylmethanol]
S. aureus
  MIC: 8 mg/L (≈ 17.6 µM)
S. aureus DNA gyrase
  IC50: 205 µM

## CC(C)(C)c1ccc(C(N)CCCN2CCC(C(O)(c3ccccc3)c3ccccc3)CC2)cc1 (centres unmarked) [Compound 24, (1-(4-amino-4-(4-(tert-butyl)phenyl)butyl)piperidin-4-yl)diphenylmethanol]
S. aureus
  MIC: 16 mg/L (≈ 34 µM)

## Nc1ccc(CCN2CCC(C(O)(c3ccccc3)c3ccccc3)CC2)cc1 [Compound 34, (1-(4-aminophenethyl)piperidin-4-yl)diphenylmethanol]
S. aureus
  MIC: 256 mg/L (≈ 662 µM)
S. aureus DNA gyrase
  IC50: 241 µM

## CC(C)(C)c1ccc(OCCCN2CCC(C(O)(c3ccccc3)c3ccccc3)CC2)cc1 [Compound 42, (1-(3-(4-(Tert-butyl)phenoxy)propyl)piperidin-4-yl)diphenylmethanol]
S. aureus DNA gyrase
  IC50: 219 µM

## CC(C)(C)c1ccc(CCCN2CCC(C(O)(c3ccccc3)c3ccccc3)CC2)cc1 [Compound 22, (1-(3-(4-(Tert-butyl)phenyl)propyl)piperidin-4-yl)diphenylmethanol]
S. aureus
  MIC: 8 mg/L (≈ 18.1 µM)
S. aureus DNA gyrase
  IC50: 211 µM

## OC(CCCN1CCC(C(O)(c2ccccc2)c2ccccc2)CC1)c1ccc(Br)cc1 (centres unmarked) [Compound 9, 1-(4-bromophenyl)-4-(4-(hydroxydiphenylmethyl)piperidin-1-yl)butan-1-ol]
S. aureus
  MIC: 32 mg/L (≈ 64.7 µM)
S. aureus DNA gyrase
  IC50: > 1010 µM

## CC(C)(C)c1ccc(C(O)CCCCN2CCC(C(O)(c3ccccc3)c3ccccc3)CC2)cc1 (centres unmarked) [Compound 2, 1-(4-(tert-butyl)phenyl)-5-(4-(hydroxydiphenylmethyl)piperidin-1-yl)pentan-1-ol]
S. aureus
  MIC: 16 mg/L (≈ 32.9 µM)
S. aureus DNA gyrase
  IC50: 206 µM

## CC(C)(C)c1ccc(C(=O)CCCN2CCC(C(O)(c3ccccc3)c3ccccc3)CC2)cc1 [Compound 11, 1-(4-(tert-butyl)phenyl)-4-(4-(hydroxydiphenylmethyl)piperidin-1-yl)butan-1-one]
S. aureus
  MIC: 8 mg/L (≈ 17 µM)

## OC(c1ccccc1)(c1ccccc1)C1CCN(CCc2ccc(-c3cccnc3)cc2)CC1 [Compound 35, Diphenyl(1-(4-(pyridin-3-yl)phenethyl)piperidin-4-yl)methanol]
S. aureus
  MIC: 32 mg/L (≈ 71.3 µM)
S. aureus DNA gyrase
  IC50: 557 µM

## Cc1ccc(C(O)CCCN2CCC(C(O)(c3ccccc3)c3ccccc3)CC2)cc1 (centres unmarked) [Compound 14, 4-(4-(hydroxydiphenylmethyl)piperidin-1-yl)-1-(p-tolyl)butan-1-ol]
S. aureus
  MIC: 128 mg/L (≈ 298 µM)
S. aureus DNA gyrase
  IC50: > 1160 µM

## CC(C)(C)c1ccc(CN2CCC(C(O)(c3ccccc3)c3ccccc3)CC2)cc1 [Compound 26, (1-(4-(tert-butyl)benzyl)piperidin-4-yl)diphenylmethanol]
S. aureus DNA gyrase
  IC50: 218 µM

## CC(C)(C)c1ccc(CCN2CCC(C(O)(c3ccccc3)c3ccccc3)CC2)cc1 [Compound 23, (1-(4-(Tert-butyl)phenethyl)piperidin-4-yl)diphenylmethanol]
S. aureus
  MIC: 8 mg/L (≈ 18.7 µM)
S. aureus DNA gyrase
  IC50: 218 µM

## CC(C)(C)c1ccc(C(O)CCCN2CCC(C(O)c3ccccc3)CC2)cc1 (mixture of isomers) [Compound 31, 1-(4-(tert-butyl)phenyl)-4-(4-(hydroxy(phenyl)methyl)piperidin-1-yl)butan-1-ol]
S. aureus
  MIC: 128 mg/L
